Values after ≈ are worked out from the molar mass of the structure shown. Active and inactive are the calls of the source. The rule behind the calls is not given here.
System: P388
Assay: Cytotoxicity against mouse P388 cells
Format: functional, cell-based
Work on `CC(C)C(=O)NCCc1ccc(O)c([N+](=O)[O-])c1` yielded an IC50 of 3 µg/mL (≈ 11.9 µM).

System: not listed separately
Assay: Inhibition of tyrosin kinase pp60src
For `CC(C)C(=O)NCCc1ccc(O)c([N+](=O)[O-])c1`, the Activity was “inactive”. With `O=Cc1c[nH]c2ccccc12` the Activity was “inactive”. In the case of `O=C(O)Cc1ccc(O)c([N+](=O)[O-])c1`, the Activity is reported as “inactive”. With `CC(C)CC(=O)NCCc1ccc(OC(=O)CC(C)C)c([N+](=O)[O-])c1` the Activity was “inactive”. For `O=C(O)c1c[nH]c2ccccc12`, the Activity was “inactive”. With `O=C(O)Cc1ccccc1` the Activity was “inactive”. With `CC(C)C(=O)NCCc1ccc(OC(=O)C(C)C)c([N+](=O)[O-])c1` the Activity was “inactive”. In the case of `CC(C)CC(=O)NCCc1ccc(O)c([N+](=O)[O-])c1`, the Activity is reported as “inactive”. For `COC(=O)Cc1ccc(OC)c([N+](=O)[O-])c1`, the Activity was “inactive”. With `N#Cc1c[nH]c2ccccc12` the Activity was “inactive”.
